Consider 3 compounds from patent US20160376659A1, “Breast Cancer Biomarker” (The University of Manchester, priority 2015, published 2016).

The test system of test [1] is patient-derived ER+ tumour cells. The test can be described thus: Mammosphere self-renewal of patient-derived ER+ tumour cells. The format is cell-based, human. The following applies: 10^−6 M 4-hydroxy-tamoxifen vs ethanol control; secondary mammospheres 7-9 days.
For test [2], the system named is ER+ BC. As to the kind of experiment: Tamoxifen trial study (SBII:2a), survival stratified by ALDH1. The format is in vivo, human. The following applies: 322 pre-menopausal ER+ BC patients; 2 years adjuvant tamoxifen vs no systemic treatment; ALDH1 dichotomised at median.
Test [3] deals with NOTCH4 intracellular domain. The test can be described thus: NOTCH4 intracellular domain Western Blot in MCF-7 endocrine-resistant cells. The class given is cell-based, human. The following applies: endocrine-resistant models; 72 h. As for the experimental part: MCF7, T47D and ZR-75-1 cell lines were purchased from American Tissue Culture Collection (ATCC) and cultured in DMEM/F-12, GlutaMAX (Gibco) with 10% FBS (Gibco). […] MCF7 resistant cell lines were authenticated by comparative karyotyping to ATCC-derived MCF7. Proteins were extracted with Protein Lysis Buffer (25 mM HEPES, 50 mM NaCl, 30 mM NaPP, 50 mM NaF, 1% Triton-X-100, 10% Glycerol, 5 mM EDTA, Protease Inhibitor cocktail, 1 μM PMSF). Lysates were placed on a rotator for 1 hour at 4° C., then were centrifuged at 10000 g at 4° C. for 10 min, and supernatants were collected. Protein concentrations were assessed using the BCA Protein Assay Kit (Thermo Scientific, 23225). Proteins were separated on a 10% gel (Biorad, 456-1033) by SDS-PAGE at 200V for 1 hour, and then were transferred on polyvinylidene difluoride (PVDF) membranes (BioRad, 170-4157) at 25 V/1,300 mA for 15 min using a Trans Blot Turbo (BioRad, 170-4155). Membranes were blocked in a solution of PBS containing 0.05% Tween-20 and 5% skimmed milk (Marvel) for 1 h at room temperature and primary antibodies were incubated overnight at 4° C. […]
On the technique in general: A western blot detects proteins with antibodies after separation by electrophoresis.

For test [4], the system named is Notch target genes HEY1 and HES1. The test can be described thus: HEY1 and HES1 expression in TAMR, FULVR and parental MCF-7 cells. The class given is cell-based, human. The conditions noted are these: TAMR and FULVR cell lines; 72 h. As for the experimental part:
MCF7, T47D and ZR-75-1 cell lines were purchased from American Tissue Culture Collection (ATCC) and cultured in DMEM/F-12, GlutaMAX (Gibco) with 10% FBS (Gibco). […] MCF7 resistant cell lines were authenticated by comparative karyotyping to ATCC-derived MCF7. Total RNA was extracted using the RNeasy Plus Mini Kit (QIAGEN, 74104) and the concentration and purity determined using an ND-1000 spectrophotometer (NanoDrop Technologies). Reverse transcription of 1 μg of RNA was performed with Oligo(dT) using the TaqMan Reverse Transcription Reagents from Applied Biosystems (N8080234). Samples were incubated on a thermal cycler (MJ Research) for 10 minutes at 25° C., 30 minutes at 48° C. and 5 minutes at 95° C. Quantitative real-time PCR reactions were set up in triplicate in 384-well plates and performed on the 7900 PCR machine (Applied Biosystems) using TaqMan® Universal PCR Master Mix (Applied Biosystems) and probes from Universal Probe Library (Roche). Conditions used for amplification of cDNA fragments were as follows: 95° C. for 5 min, 40 cycles of amplification-95 C for 15 sec, 60 C for 1 min. The expression levels were calculated using the ΔΔCt method and normalised to the housekeeping genes 36B4 and GAPDH. The sequences of the primers and probes used can be found in the table below.

The test system of test [5] is HBC×22 and HBC×34 tamoxifen-resistant PDXs. The test can be described thus: BCSC activity (MFE, ALDH-positive cells) in tamoxifen-resistant PDXs treated in vivo. The following applies: RO4929097 10 mg/kg/day oral gavage, 14 days. Details: species or system mice. As for the experimental part: Fulvestrant (kindly provided by Astrazeneca, 200 mg/kg/week) was administered by subcutaneous injection (0.1 ml/dose) on a weekly basis for fourteen days. […] Xenografts were collected in ice cold DMEM media for live cell assays, histological analysis and RNA and protein extraction. Patient-derived xenograft single cell suspension was obtained using a collagenase-hyaluronidase mixture for digestion (Stem Cell Technologies). […] Primary mammospheres were dissociated and replated in secondary mammosphere suspension culture for a further 7-9 days to measure self-renewal. Patient-derived xenograft cells were cultured for 7-10 days. For cell lines, cells were pre-treated in adherence and then cultured for 5 days in mammosphere culture. Mammosphere formation efficiency (MFE) was calculated by dividing the number of mammospheres formed (≧50 μm) by the original number of single cells seeded (500 cells/cm^2 for primary cells and 200 cells/cm^2 for cell lines) and is expressed as fold change normalised to control or as the mean percentage of MFE (Shaw et al., 2012). Dissociated single cells were suspended in Aldefluor assay buffer containing an ALDH substrate, bodipyaminoacetaldehyde (BAAA) at […], and incubated for 45 min at 37° C. […] Data were acquired on a LSR II (BD) flow cytometer and analysed using the BD FACSDiva™ software.

Test [6] relates to CD44^+CD24^low+ BCSCs. The following applies: Azzam et al., 2013; cited from earlier work.
Test [7] relates to ALDH1A1. The following applies: short-term administration to patients; analysis of published microarray data; cited from earlier work.

With `CC/C(=C(\c1ccccc1)c1ccc(OCCN(C)C)cc1)c1ccccc1` [tamoxifen, (Z)-2-[4-(1,2-diphenylbut-1-enyl)phenoxy]-N,N-dimethylethanamine], the mammosphere self-renewal entry in test [1] is “about two-fold”. The “survival benefit from tamoxifen by epithelial ALDH1 expression” value in test [2] was “improvement in survival (ie. a response to treatment) was only seen in women with low epithelial ALDH1 expression”.
For `CC(C)(C(=O)NCC(F)(F)C(F)(F)F)C(=O)N[C@@H]1C(=O)Nc2ccccc2-c2ccccc21` [RO4929097], the “levels of the active NOTCH4 intracellular domain” value in test [3] is on record as “effective in reducing”. Besides, the “HEY1 and HES1 expression” value in test [4] is listed as “inhibited”. In addition, the “enrichment of BCSCs” value in test [5] is reported as “significantly reduced”. Moreover, in test [6], the “mammosphere and tumor formation” value is listed as “reduce”.
In the case of `C[C@]12CC[C@@H]3c4ccc(O)cc4C[C@@H](CCCCCCCCC[S+]([O-])CCCC(F)(F)C(F)(F)F)[C@H]3[C@@H]1CC[C@@H]2O` (stereo partly shown) [fulvestrant], the “expression of the ALDH1A1 gene in breast tumors” value in test [7] is on record as “significantly increased”.
